Experimental data as given in article PMC5896380, “Selective imaging of cathepsin L in breast cancer by fluorescent activity-based probes” (Chemical Science, 2018).

Key:
cathepsin V = target: T1, cathepsin V (Homo sapiens, UniProt O60911); test: kobs/I of activity-based probes, cathepsin V; type: biochemical; settings: Fig. 6A; pseudo-first order, probe at least 5-fold excess over cathepsin, 100 μM ACC substrate; pH 5.5, 37 °C; triplicate, SD below 20%
T1 construct: made in house
Method: (§1) All kinetic experiments were performed using fMax (Molecular Devices) and CLARIOStar (BMG LABTECH) spectrofluorimeters operating in kinetic mode using 96-well plates. ACC-labeled substrates were screened using 355 nm and 460 nm wavelengths (excitation and emission, respectively). […] The buffer was prepared at room temperature and the enzyme kinetic studies were performed at 37 °C.
(§2) For the kinetic studies, five recombinant human cathepsins (B, L, V, K and S) were expressed and purified and active site titrated using an E64 inhibitor. The kobs/I parameter was measured under pseudo-first order kinetic conditions, as described.[40] The cathepsin of interest was mixed with various concentrations of probe (at least 5-fold excess over cathepsin) and 100 μM ACC-fluorescence substrate. The experiments were repeated at least three times, and the results are presented as an average. The SDs were below 20%.

cathepsin B = target: T2, cathepsin B (Homo sapiens, UniProt P07858); test: kobs/I of activity-based probes, cathepsin B; type: biochemical; settings: Fig. 6A; pseudo-first order, probe at least 5-fold excess over cathepsin, 100 μM ACC substrate; pH 5.5, 37 °C; triplicate, SD below 20%
T2 construct: made in house
Method: as §1, §2

[1] = system: cathepsins L and B in MDA-MB-231 cells; test: Cathepsin labeling in MDA-MB-231 cells by SDS-PAGE and western blotting; type: cell-based, human; settings: MDA-MB-231 cells
Method: Low passage MDA-MB-231 cells were seeded on 12-well plates (200 000 cells per well per 1 mL of medium) and cultured in Dulbecco’s Modification of Eagle’s Medium (DMEM) supplemented with 10% fetal bovine serum, 2 mM of L-glutamine, 100 units per mL penicillin and 100 μg mL^–1 streptomycin. […] To control for non-specific binding, the cells were preincubated with E64d (25 μM) for 2 hours prior to probe addition. At various time points, the medium was aspirated and the cells were gently washed twice with 1 mL of Dulbecco’s Phosphate-Buffered Saline (DPBS) and then trypsinized, harvested and centrifuged for 10 min (500 × g). The supernatants were removed by aspiration and the pellets washed with 1 mL of DPBS and centrifuged (5 min, 500 × g). The supernatants were again removed and the pellets solubilized in 100 μL 1× SDS/DTT and then boiled for 5 min. Each sample was then cooled to room temperature and sonicated (Branson Sonifier 250, duty cycle: 50, output control: 5, cycles: 5) and then 30 μL was loaded on 4–12% Bis-Tris Plus gels and run for 30 min at 200 V with a SDS-PAGE Standards/Broad Range ladder. Proteins were transferred to a 0.2 μm nitrocellulose membrane for 1 hour at 10 V and then Ponceau staining was used to verify equal loading. Membranes were blocked with 2.5% BSA in Tris-buffered saline/0.1% v/v Tween 20 (TBS-T) for 1 hour at room temperature. Cathepsins L and B were detected by primary goat anti-hCathepsin L (R&D, AF952, 0.2 mg mL^–1, 1 : 2000) and goat anti-hCathepsin B (R&D, AF953, 0.2 mg mL^–1, 1 : 1000) antibodies, respectively, followed by incubation with a secondary antibody (IRDye® 800CW, LI-COR, donkey anti-goat, 1 : 10 000). The membranes were incubated with primary antibodies for 2 hours, and with (fluorescent) secondary antibodies for 30 min (both in TBS-T at room temperature). The fluorescence was read at 700 nm (Cyanine5; excitation 685 nm) and 800 nm (secondary antibody; excitation 785 nm) using an Odyssey fluorescence imaging system (LI-COR). The images were analyzed using Image Studio software.

[2] = system: cathepsins L, V, B, S and K; test: Labeling of recombinant cathepsins by Cy5 probes, SDS-PAGE; type: biochemical, human; settings: cathepsins 10 nM or 100 nM, probe/enzyme ratio 0.2, 1, 5 and 25, 30 min, Cy5 scan
Method: In experiment A, the probe concentrations were 2 nM, 10 nM, 50 nM and 250 nM, while in experiment B the probe concentrations were 20 nM, 100 nM, 500 nM and 2.5 μM. The reaction volume for all the samples was 200 μL. After 30 min, 100 μL of 3× SDS/DTT was added to the reaction mixtures, the samples were boiled for 5 min, and then 20 μL of the sample was run on 4–12% Bis-Tris Plus 15-well gels for 30 min at 200 V with 2 μL of PageRuler™ Prestained Protein Ladder. The gels were then directly scanned at 700 nm (red channel for Cy5 detection; excitation 685 nm) using an Odyssey fluorescence imaging system (LI-COR) and the images were analyzed using Image Studio software.

cathepsin K = target: T3, cathepsin K (Homo sapiens, UniProt P43235); test: kobs/I of activity-based probes, cathepsin K; type: biochemical; settings: Fig. 6A; pseudo-first order, probe at least 5-fold excess over cathepsin, 100 μM ACC substrate; pH 5.5, 37 °C; triplicate, SD below 20%
T3 construct: made in house
T3 sequence (P43235 115-329): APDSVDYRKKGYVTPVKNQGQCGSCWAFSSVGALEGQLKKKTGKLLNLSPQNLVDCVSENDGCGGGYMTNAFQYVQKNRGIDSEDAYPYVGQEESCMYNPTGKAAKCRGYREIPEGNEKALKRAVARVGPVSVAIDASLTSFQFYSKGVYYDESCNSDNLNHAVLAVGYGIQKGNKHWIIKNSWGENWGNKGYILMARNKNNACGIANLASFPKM
Method: as §1, §2

cathepsin L = target: T4, cathepsin L (Homo sapiens, UniProt P07711); test: kobs/I of activity-based probes, cathepsin L; type: biochemical; settings: Fig. 6A; pseudo-first order, probe at least 5-fold excess over cathepsin, 100 μM ACC substrate; pH 5.5, 37 °C; triplicate, SD below 20%
T4 construct: made in house
Method: as §1, §2

[3] = system: cathepsins L and B in HEK293T cells; test: Cathepsin labeling by Cy5 probes in HEK293T cells, immunoblotting; type: cell-based, human; settings: 1 μM probe, 0–18 hours
Method: Figure S3 Cathepsins labeling by two Cy5-tagged probes in HEK293T cells. Panel A. Cells (100,000/well/mL) were incubated with MP-cL3 (1µM) probe for 0-18 hours. Next, cells were harvested and subjected for Western blotting. MP-cL3 probe is very selective toward cathepsin L even after 18 hours of incubation (only residual cathepsin B activity is detected).
MDA-MB-231, thus mostly heavy chain of cathepsin L is labeled. Panel B and Panel C. Cells (100,000/well/mL) were incubated with pan-specific MP-pc1 (1µ M) probe for 0-18 hours. Next, cells were harvested and subjected […]
(1 picture or pasted object on this page, not shown here)

cathepsin S = target: T5, cathepsin S (Homo sapiens, UniProt P25774); test: kobs/I of activity-based probes, cathepsin S; type: biochemical; settings: Fig. 6A; pseudo-first order, probe at least 5-fold excess over cathepsin, 100 μM ACC substrate; pH 5.5, 37 °C; triplicate, SD below 20%
T5 construct: made in house
Method: as §1, §2

T4 sequence (P07711 114-333): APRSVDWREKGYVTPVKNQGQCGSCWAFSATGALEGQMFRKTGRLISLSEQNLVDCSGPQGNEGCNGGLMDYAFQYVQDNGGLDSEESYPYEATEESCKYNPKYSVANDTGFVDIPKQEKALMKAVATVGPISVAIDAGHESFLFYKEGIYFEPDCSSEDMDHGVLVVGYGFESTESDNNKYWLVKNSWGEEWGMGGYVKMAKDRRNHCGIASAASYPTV
T5 sequence (P25774 115-331): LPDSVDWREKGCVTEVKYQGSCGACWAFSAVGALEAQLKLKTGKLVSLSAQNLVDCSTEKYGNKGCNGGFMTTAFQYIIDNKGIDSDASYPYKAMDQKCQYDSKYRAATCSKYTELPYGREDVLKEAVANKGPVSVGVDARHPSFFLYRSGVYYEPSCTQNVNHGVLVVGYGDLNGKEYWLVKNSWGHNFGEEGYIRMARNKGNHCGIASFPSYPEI
T1 sequence (O60911 114-334): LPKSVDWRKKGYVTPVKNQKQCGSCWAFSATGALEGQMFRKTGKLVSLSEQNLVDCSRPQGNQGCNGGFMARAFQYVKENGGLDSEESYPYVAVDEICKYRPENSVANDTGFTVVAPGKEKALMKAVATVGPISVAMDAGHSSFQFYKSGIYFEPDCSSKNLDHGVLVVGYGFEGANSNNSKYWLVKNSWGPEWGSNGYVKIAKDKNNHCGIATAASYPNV

Cy5-6-ahx-His-DThr-Phe(F5)-Cys(Bzl)-AOMK [MP-cL3]
kobs/I Cath-V (cathepsin V): 380 M⁻¹ s⁻¹ | kobs/I Cath-B (cathepsin B): 780 M⁻¹ s⁻¹ | incubation time up to which only cathepsin L is labeled (no labeling of cathepsin B) ([1]; 1 μM probe): up to 8 hours | incubation time after which probe labeling is detectable in cells ([1]; 1 μM probe, 0–18 hours): 1 h | incubation time up to which only cathepsin L is labeled ([1]; 5 μM probe, 2-16 hours): up to two | labeling of recombinant cathepsins L, V, B, S and K [2]: very high degree of selectivity | kobs/I Cath-K (cathepsin K): < 200 M⁻¹ s⁻¹ | kobs/I Cath-L (cathepsin L): 322,000 M^-1s^-1 | cathepsins labeled in HEK293T cells [3]: bound only cathepsin L | kobs/I Cath-S (cathepsin S): 225 M⁻¹ s⁻¹
